From patent US20110111976A1, “MICRORNA BIOMARKERS OF TISSUE INJURY” (priority 2008, published 2011) come the findings set out here.

Series [1] deals with Sprague-Dawley rats. In words: Pooled sample study: miR-122 in blood plasma of toxicant-treated rats by qPCR. In kind it is in vivo. To be noted: pooled rat plasma (5 samples), cerivastatin 1.0 mg/kg/day oral Day 14, CBrCl3 0.1 ml/kg oral Days 2 & 4, TMPD 6 mg/kg bid s.c. Day 3; for miR-122 Copies / miR-122 Ct Mean: 250 ng total RNA input. Here is the method:
(§1) To explore the feasibility of detecting miRNA tissue injury biomarkers in plasma, a pilot study was performed in which pooled blood plasma samples from rat toxicology studies were analyzed using a qPCR-based assay (Raymond et at, 2005, RNA 11:1737; WO 2006/081282). The miRNAs miR-122 and miR-133 were chosen for quantification because they are extremely abundant and specific to liver and muscle, respectively (FIG. 1). Stored plasma samples from rats that had previously been treated with a liver damaging agent trichlorobromomethane (CBrCl3) or with one of two muscle damaging agents 2,3,5,6-tetramethyl-p phenylenediamine (TMPD) or cerivastatin) were assayed form miRNA levels using qPCR.
(§2) Animals Male and female Sprague-Dawley rats were obtained from Charles River Laboratories, Inc. (Raleigh, N.C.). The rats were approximately seven to eight weeks of age and weighed from 125 to 325 grams at the start of the study. The animals were acclimated for approximately one week and randomized into treatment and control groups. During the toxicity studies targeting liver, the animals were maintained on a caloric-restricted diet, and fasted overnight prior to necropsy. Doses were different for each model compound tested and were calculated based on animal body weight. For the compounds, routes of administration, dose groups, and time points, see the below compound section.
(§3) Skeletal Muscle Toxicant • 2,3,5,6-tetramethyl-p phenylenediamine (TMPD) • Doses: 6 mg/kg bid • Dosing: 0.9% NaCl by subcutaneous injection • Animals: Sprague Dawley Male Rats • Time Points Day 3, TMPD Plasma (Day 3) and Controls (5 samples, 100 ul each pooled=500 ul total).
(§4) Liver Toxicant • Trichlorbromomethane (CCl3Br) • Doses: 0.1 ml/kg • Dosing: 100% liquid paraffin by oral gavage • Animals: Sprague Dawley Male Rats • Time Point: Day 2, 4 CCl3Br Plasma (Days 2 & 4) and Controls (5 samples, 100 ul each pooled=500 ul total)
(§5) Liver and Muscle Toxicant • Cerivastatin • Doses: 1.0 mg/kg/day • Dosing: 0.5% methylcellulose by oral gavage • Animals: Sprague Dawley Female Rats • Time Point Day 14 Cerivastatin Plasma (Day 14) and Controls (5 samples, 100 ul each pooled=500 μl total)
(§6) Plasma Samples All plasma samples were collected in EDTA tubes at final necropsy from the vena cava. Samples were inverted several times, and centrifuged for 20 minutes at 2,900 RPM at 4° C. Plasma samples were removed and stored at −70° C. Pooled blood plasma samples from rat toxicology studies were analyzed using a qPCR-based assay (Raymond et al, 2005, RNA 11:1737; WO 2006/081282). Control slope and intercept values for miR-122 and miR-133 were calculated from a concentration series of each microRNA added to total yeast RNA and then analyzed using the qPCR assay for each miRNA. The slope and intercept values from the standard curve were used to calculate the amount of each respective miRNA in each sample expressed as the number of miRNA copies per 20 ng of total RNA in each sample. Cycle threshold values (Ct) for each sample were converted to miRNA copy numbers by comparison to standard curves generated using single stranded mature miRNAs and are expressed as copies/20 pg input RNA (approximately equivalent to copies/cell).
For orientation: Real-time PCR tracks product formation cycle by cycle.

Series [2] has as its system Sprague-Dawley rats. In words: Pooled sample study: miR-133 in blood plasma of toxicant-treated rats by qPCR. Format: in vivo. The conditions noted are these: pooled rat plasma (5 samples), cerivastatin 1.0 mg/kg/day oral Day 14, CBrCl3 0.1 ml/kg oral Days 2 & 4, TMPD 6 mg/kg bid s.c. Day 3; for miR-133 Copies / miR-133 Ct Mean: 250 ng total RNA input. As to the method: as §1, §2, §3, §4, §5, §6

Series [3] deals with Sprague-Dawley rats. In words: Individual sample study: miR-122 in blood plasma of toxicant-treated rats by qPCR. In kind it is in vivo, rat. To be noted: individual male rats. Here is the method:
(§7) To follow up on the initial results shown in Example 2, blood samples from 44 individual rats that had been treated with varying doses of CBrCl3, CCl4 (another liver toxicant), or TMPD were evaluated using qPCR of miR-122 and miR-133. In addition, data from histopathology and a panel of standard biomarkers (ALT, AST, CK, skTnI, etc.) were also available for these same individual rats and were used to compare the results from microRNA assays with the standard histopathology and protein biomarkers.
as §2
(§8) Skeletal Muscle Toxicant • 2,3,5,6-tetramethyl-p phenylenediamine (TMPD) • Doses: 2, 4 mg/kg bid • Dosing: 0.9% NaCl by subcutaneous injection • Animals: Sprague Dawley Male Rats • Time Points: TMPD Plasma (Day 2) and Controls (5 samples per group, […] pooled=500 μl total).
(§9) Liver Toxicant • Trichlorobromomethane (CCl3Br) • Doses: 0.03, 0.1 ml/kg • Dosing: 100% liquid paraffin by oral gavage • Animals: Sprague Dawley Male Rats • Time Point: CCl3Br Plasma (Days 2 & 4) and Controls (4 controls, 3 samples per group, 100 μl each) • Carbon Tetrachloride (CCl4) • Doses: 0.03, 0.1, 0.3 ml/kg • Dosing: 100% liquid paraffin by oral gavage • Animals: Sprague Dawley Male Rats • Time Point: CCl4 Plasma (Days 2) and Controls (4 samples per group, 100 μl each)
as §6, with “are expressed in Table 4 as copies/20” for “are expressed as copies/20”

The test system of series [4] is Sprague-Dawley rats. In words: Individual sample study: miR-133 in blood plasma of toxicant-treated rats by qPCR. Format: in vivo, rat. To be noted: individual male rats. Here is the method: as §7, §2, §8, §9
as §6, with “are expressed in Table 4 as copies/20” for “are expressed as copies/20”

Series [5] has as its system Sprague-Dawley rats. In words: Clinical chemistry (AST, ALT, CK) in blood plasma of toxicant-treated rats. The conditions noted are these: individual male rats. Format: in vivo, rat. As to the method:
as §7, §2, §8, §9

Series [6] deals with Sprague-Dawley rats. In words: Liver histopathology scores of toxicant-treated rats. The arrangement: key to Liver Histopathology Scores: Vacuolation / Liver Histopathology Scores: Necrosis / Liver Histopathology Scores: Degeneration / Liver Histopathology Scores: Inflammation / Liver Histopathology Scores: Mitotic Index: 1 = very slight; 2 = slight or small; 3 = moderate; 4 = marked; 5 = severe tissue injury. Format: in vivo, rat. As to the method: as §7, §2, §9

Where [7] appears, read: CBrCl3 0.03 mL/kg oral gavage, Day 2, plasma.
The mark [8] stands for this setting: CBrCl3 0.03 mL/kg oral gavage, Day 4, plasma.
The mark [9] stands for this setting: CBrCl3 0.1 mL/kg oral gavage, Day 4, plasma.
[10] abbreviates: CBrCl3 0.03 mL/kg oral gavage, Day 2, individual male rats.
Where [11] appears, read: CBrCl3 0.03 mL/kg oral gavage, Day 4, individual male rats.
[12] abbreviates: CBrCl3 0.1 mL/kg oral gavage, Day 4, individual male rats.
Setting [13] is: CCl4 0.03 ml/kg oral gavage, Day 2, plasma.
The mark [14] stands for this setting: CCl4 0.1 mL/kg oral gavage, Day 2, plasma.
The mark [15] stands for this setting: CCl4 0.3 mL/kg oral gavage, Day 2, plasma.
Where [16] appears, read: CCl4 0.03 ml/kg oral gavage, Day 2, individual male rats.
Setting [17] is: CCl4 0.1 mL/kg oral gavage, Day 2, individual male rats.
The mark [18] stands for this setting: CCl4 0.3 mL/kg oral gavage, Day 2, individual male rats.

“And” between values parts separate entries of the source, which are not always exact repeats. Identical values can stand only once.

Regarding `ClC(Cl)(Cl)Br` [CBrCl3, trichlorobromomethane], in the series on Sprague-Dawley rats [1], the “miR-122 Copies” value is listed as 8.8E+08, the “miR-122 Ct Mean” value was determined as 12.6961 and the “miR-122 Copies/20 pg” value amounted to 70674.9 Copies/20 pg. Further, in the series on Sprague-Dawley rats [2], the “miR-133 Copies” value amounted to 85617.9, the “miR-133 Ct Mean” value was found to be 29.6296 and the “miR-133 Copies/20 pg” value amounted to 6.8 Copies/20 pg. The miR-122 with Sprague-Dawley rats [3] (setting [7]) was 860.8 copies/20 pg input RNA and 45.1 copies/20 pg input RNA and 47.3 copies/20 pg input RNA. In addition, the miR-122 in the series on Sprague-Dawley rats [3] (setting [8]) is 90.2 copies/20 pg input RNA and 56.2 copies/20 pg input RNA and 20.5 copies/20 pg input RNA. In the series on Sprague-Dawley rats [3] (setting [9]), the miR-122 was 4049.2 copies/20 pg input RNA and 335.5 copies/20 pg input RNA and 304.0 copies/20 pg input RNA. Also, the miR-133 with Sprague-Dawley rats [4] (setting [7]) is 0.7 copies/20 pg input RNA and 0.2 copies/20 pg input RNA and 0.4 copies/20 pg input RNA. The miR-133 with Sprague-Dawley rats [4] (setting [8]) is 1.2 copies/20 pg input RNA and 2.0 copies/20 pg input RNA and 0.3 copies/20 pg input RNA. In the series with Sprague-Dawley rats [4] (setting [9]), the miR-133 was 0.8 copies/20 pg input RNA and 0.4 copies/20 pg input RNA (2×). In the series on Sprague-Dawley rats [5] (setting [7]), the ALT is 142 Unit and 36 Unit (2×); the AST is 366 Unit and 83 Unit and 93 Unit. Moreover, in the series on Sprague-Dawley rats [5] (setting [8]), the ALT was 34 Unit and 43 Unit and 32 Unit; the AST is 138 Unit and 118 Unit and 108 Unit. In addition, in the series on Sprague-Dawley rats [5] (setting [9]), the ALT is 1388 Unit and 191 Unit and 223 Unit; the AST was 1543 Unit and 370 Unit and 519 Unit. In the series on Sprague-Dawley rats [6] (setting [10]), the “Liver Histopathology Scores: Degeneration” value was 2 and 0 and 1; the “Liver Histopathology Scores: Inflammation” value was 1 (2×) and 0; the “Liver Histopathology Scores: Mitotic Index” value was determined as 0; the “Liver Histopathology Scores: Necrosis” value was 1 and 0 (2×). For the same compound, in the series on Sprague-Dawley rats [6] (setting [11]), the “Liver Histopathology Scores: Degeneration” value is 0 and 1 (2×); the “Liver Histopathology Scores: Inflammation” value is given as 0; the “Liver Histopathology Scores: Mitotic Index” value is listed as 0; the “Liver Histopathology Scores: Necrosis” value came to 0. Further, in the series with Sprague-Dawley rats [6] (setting [12]), the “Liver Histopathology Scores: Degeneration” value is 2 and 1 (2×); the “Liver Histopathology Scores: Inflammation” value came out at 2; the “Liver Histopathology Scores: Mitotic Index” value was 1 (2×) and 2; the “Liver Histopathology Scores: Necrosis” value is 3 and 1 (2×).

With `COCc1c(C(C)C)nc(C(C)C)c(/C=C/[C@@H](O)C[C@@H](O)CC(=O)O)c1-c1ccc(F)cc1` [Cerivastatin], in the series on Sprague-Dawley rats [1], the “miR-122 Copies” value stood at 353217, the “miR-122 Ct Mean” value is given as 24.2231 and the “miR-122 Copies/20 pg” value is given as 28.3 Copies/20 pg. Further, in the series with Sprague-Dawley rats [2], the “miR-133 Copies” value is listed as 7279643, the “miR-133 Ct Mean” value stood at 23.1065 and the “miR-133 Copies/20 pg” value was 582.4 Copies/20 pg.

As to `ClC(Cl)(Cl)Cl` [CCl4, Carbon Tetrachloride], the miR-122 in the series on Sprague-Dawley rats [3] (setting [13]) was 2.4 copies/20 pg input RNA and 5.5 copies/20 pg input RNA and 8.7 copies/20 pg input RNA and 10.0 copies/20 pg input RNA; with Sprague-Dawley rats [3] (setting [14]) it was 7.9 copies/20 pg input RNA and 107.4 copies/20 pg input RNA and 14.3 copies/20 pg input RNA and 119.4 copies/20 pg input RNA; with Sprague-Dawley rats [3] (setting [15]), 1563.6 copies/20 pg input RNA and 194.3 copies/20 pg input RNA and 191.4 copies/20 pg input RNA and 164.6 copies/20 pg input RNA. Further, the miR-133 in the series on Sprague-Dawley rats [4] (setting [13]) is 0.3 copies/20 pg input RNA (2×) and 0.5 copies/20 pg input RNA and 1.0 copies/20 pg input RNA; in the series with Sprague-Dawley rats [4] (setting [14]), 0.3 copies/20 pg input RNA (2×) and 0.4 copies/20 pg input RNA (2×); in the series on Sprague-Dawley rats [4] (setting [15]), 1.4 copies/20 pg input RNA and 0.4 copies/20 pg input RNA and 0.3 copies/20 pg input RNA and 0.1 copies/20 pg input RNA. Moreover, the ALT with Sprague-Dawley rats [5] (setting [13]) was 25 Unit (3×) and 20 Unit; in the series on Sprague-Dawley rats [5] (setting [14]), 25 Unit and 40 Unit (2×) and 41 Unit; in the series on Sprague-Dawley rats [5] (setting [15]), 87 Unit and 77 Unit and 62 Unit and 56 Unit. In addition, the AST in the series with Sprague-Dawley rats [5] (setting [13]) is 92 Unit and 88 Unit and 76 Unit and 84 Unit; in the series on Sprague-Dawley rats [5] (setting [14]) it was 96 Unit and 116 Unit and 102 Unit and 126 Unit; with Sprague-Dawley rats [5] (setting [15]), 345 Unit and 216 Unit and 157 Unit and 225 Unit. The “Liver Histopathology Scores: Degeneration” value with Sprague-Dawley rats [6] (setting [16]) is 0; in the series with Sprague-Dawley rats [6] (setting [17]) it was 0 (2×) and 1 (2×); with Sprague-Dawley rats [6] (setting [18]) it was 2. The “Liver Histopathology Scores: Inflammation” value in the series with Sprague-Dawley rats [6] (setting [16]) was 0; with Sprague-Dawley rats [6] (setting [17]), 0 (2×) and 2 and 1; with Sprague-Dawley rats [6] (setting [18]), 2 (3×) and 1. Besides, the “Liver Histopathology Scores: Necrosis” value is 0 in the series on Sprague-Dawley rats [6] (setting [16]); 0 (2×) and 1 (2×) in the series with Sprague-Dawley rats [6] (setting [17]); 1 with Sprague-Dawley rats [6] (setting [18]). In addition, the “Liver Histopathology Scores: Vacuolation” value with Sprague-Dawley rats [6] (setting [16]) is 0; in the series with Sprague-Dawley rats [6] (setting [17]), 0 and 1 (3×); in the series with Sprague-Dawley rats [6] (setting [18]), 0.
